Data taken from US9968602B2, “Modulation of cell fates and activities by phthalazinediones” (Bach Pharma, Inc., priority 2002, dated 2018).

Key:
[1] = test system: mitochondrial transmembrane pores; details: cited from earlier work
MOMU-LV-Ts1 virus = experiment: Movement disorder with paralysis induced by MOMU-LV-Ts1 virus in mice; format: in vivo; details: daily intraperitoneal injections of 200 μg
Excerpt: In mice infected at 2 days of age with the Ts1 virus, hind limb paralysis occurs with severe wasting, especially of immune organs. In humans infected with HIV, severe immune deficiency with sensory and motor neuropathy also results. In these wasting syndromes with disordered life and death pathways in various cells, some therapeutic attempts with thiol redox modulators other than amino phthalazinediones have been partially successful (Lynn and Wong, NeuroImmunomodulation 4: 277-284, 1997; Yan et al., FASEB J. 15: 1132-1138, 2001). In these studies, phthalazinediones plus thiol redox modulators appear to be sufficient to maintain survival and an adequate intracellular thiol redox potential in brain and in thymus.
Since maintaining this excessive and imbalanced 4 Hz oscillation requires increased […] expenditures, agents such as amino phthalazinediones, which can modulate thiol redox status, downregulate mitochondrial energy production, and gain access to the overactivated STN neurons, can potentially suppress the 4 Hz overactivity and thereby suppress and modulate the downstream network activities responsible for the symptoms. […] Whether this is due to suppression of oscillatory activity in neurons, suppression of virus-induced astrocytic inflammatory responses, or both is under investigation. […]

ATM-deficient mice = experiment: Thymic tumor formation and premature degeneration in ATM-deficient mice; format: in vivo; details: ATM deficiency
Excerpt: In regulatory gene-dependent syndromes of premature aging, including ataxia telangiectasia, Down syndrome, trichothiodystrophy, Bloom's disease, p53 over-activity (De Boer et al., Science 296: 1276-1281, 2002; Tyner et al., Nature 415: 45-50, 2002), in which life and death of specific cell types are aberrant, appropriate treatments in vitro and in vivo with thiol redox modulators have been partially successful.
Other thiol redox modulators, such as N-acetyl cysteine and dehydrolipoic acid, also delay the premature degeneration of cells and the thymomas. Thiol redox modulators also correct the delayed differentiation and excessive production of DNA in ATM-deficient lymphoid cells (Yan et al., FASEB J. 15: 1132-1138, 2001; Lynn et al., unpublished). However, in the ATM-deficient mice, treatment was fully successful only if the thiol redox modulators were applied early, before two weeks of age and before tumor development.
Whether amino phthalazinediones with other thiol redox modulators, which suppress growth of non-transformed ATM-deficient cells in vitro, can fully suppress tumors in vivo, without toxicity, has not been rigorously evaluated. Cross-linking redox modulators such as diamide, menadione, and oxidized phthalazines are known to stop cell growth, activate caspases, and initiate apoptosis in some tumor cells (Pias and Aw, FASEB J. 16: 781-790, 2002).

| Compound | premature degeneration of cells and the thymomas (ATM-deficient mice) | other results |
| --- | --- | --- |
| CN(C)C(=O)/N=N/C(=O)N(C)C [Diamide] | – | opening of mitochondrial transmembrane pores [1]: completely opens mitochondrial transmembrane pores |
| Nc1cccc2c([O-])n[nH]c(=O)c12.[Na+] [4-sodium amino phthalazinedione] | – | progress of the movement disorder with paralysis (MOMU-LV-Ts1 virus): significantly delay |
| CC(=O)N[C@@H](CS)C(=O)O [N-acetyl cysteine] | delay | – |
| O=C(O)CCCC[C@@H](S)CCS [dehydrolipoic acid] | delay | – |
